{"source": "patent US8470822B2", "about": "“Folate mimetics and folate-receptor binding conjugates thereof” (Purdue Research Foundation, priority 2001, dated 2013)", "key": {"[1]": {"target": "T1, folate receptor on KB cells (Homo sapiens, UniProt P15328)", "T1 construct": "host or cells: KB cells (intact, trypsinized, suspended)", "T1 sequence (P15328 25-234)": "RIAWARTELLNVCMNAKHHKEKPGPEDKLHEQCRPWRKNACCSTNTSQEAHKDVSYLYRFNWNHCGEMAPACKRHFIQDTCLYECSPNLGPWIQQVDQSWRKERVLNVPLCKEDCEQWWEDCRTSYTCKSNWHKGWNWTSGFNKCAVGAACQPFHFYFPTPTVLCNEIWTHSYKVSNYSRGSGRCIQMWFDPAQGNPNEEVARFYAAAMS", "test": "Relative binding affinity: competition with 3H-folic acid for binding to KB cells", "details": "100 nM 3H-folic acid, 15 minutes on ice; for relative binding activity compared to folic acid: folic acid set to 1; for EC50: read-out: EC50 (displacement of 3H-folic acid bound to folate receptor)", "description": "Relative binding affinity. […] The relative affinity of various folate derivatives was determined according to the method described by Westerhoff et al. (Mol. Pharm., 1995, 48:459-471) with slight modification. Briefly, folate receptor-positive KB cells were gently trypsinized in 0.25% trypsin in phosphate-buffered saline (PBS) at room temperature for 3 minutes and then diluted in folate-free RPMI 1640 media (FFRPMI) (Gibco) supplemented with 10% heat-inactivated fetal calf serum. Following a 5 minute 800×g spin and one PBS wash, the final cell pellet was suspended in FFRPMI (no serum). […] Samples were centrifuged at 10,000×g for 5 minutes, cell pellets were suspended in buffer, transferred to individual vials containing 5 mL of scintillation cocktail, and then counted for radioactivity.\nBinding activity. The binding activity of pteroyl hydrazide and pteroylhydrazido-BTCA-DAS was determined using the assay described in Example IV."}, "[2]": {"system": "folate-receptor-positive human KB cell tumor xenografts", "test": "Biodistribution of 111In radiotracer in KB tumor-bearing athymic mice after intravenous administration", "format": "in vivo", "description": "Our primary animal model for evaluation of the biodistribution and pharmacokinetics of folate-receptor-targeted radiopharmaceuticals has been athymic mice bearing subcutaneously implanted folate-receptor-positive human KB cell tumors. […] After 3 weeks on folate-free diet, mouse serum folate levels drop to 25±7 nM from the initial 720±260 nM serum folate level when the animals are fed normal rodent chow. This dietary intervention is believed to be a reasonable manipulation of the animal model, since the mice would have serum folate levels only slightly higher than the folate concentration of normal human serum. Thus, in these mouse biodistribution studies the radiotracer is competing for tumor folate receptors with physiologically relevant concentrations of endogenous unlabeled serum folate.\nThe substantial retention of ^111In in the kidneys is fully consistent with the binding of ^111In-CYK4-013 to tissue folate receptors, since the renal proximal tubule is a known normal tissue site of folate receptor expression. […] The behavior of the ^111In-CYK4-013 radiopharmaceutical in this animal model (Table 2) is very similar to that observed for ^111In-DTPA-Folate (Table 3).\nResults. Similar to ^111In-DTPA-Folate, ^111In-CYK4-013 selectively localized in the folate-receptor-positive tumor xenografts, and afforded prolonged tumor retention of ^111In (5.4±0.8; 5.5±1.1; and 3.6±0.6% ID/g at 1 hour, 4 hours, and 24 hours, respectively) (Table 2). […] Blockable binding was also observed in the kidneys, where the folate receptor occurs in the proximal tubules."}, "[3]": {"details": "4 Hours Post Injection BLOCKED, Folic Acid Dose 495 ± 79 μg/kg, n = 4"}}}
{"smiles": "Nc1nc(O)c2nc(CNc3ccc(C(=O)O[C@H](C(=O)O)c4ccccc4)cc3)cnc2n1", "note": "[ACBP, (S)-α-carboxybenzoyl pteroate]", "values": [{"measurement": "relative binding activity compared to folic acid", "setting": "[1]", "value": 0.46}, {"measurement": "EC50", "setting": "[1]", "value": 204, "unit": "nM"}]}
{"smiles": "Nc1nc2ncc(CNc3ccc(C(=O)N[C@@H](CCC(=O)NCCNC(=O)CN(CCN(CCN(CC(=O)[O-])CC(=O)[O-])CC(=O)[O-])CC(=O)[O-])C(=O)O)cc3)nc2c(=O)[nH]1.[111In]", "note": "[^111In-DTPA-Folate, reference compound]", "values": [{"measurement": "Percentage of Injected 111In Dose Per Gram: Blood", "setting": "[2]; 1 Hour Post Injection, n = 4", "value": "0.14 ± 0.03", "unit": "% ID/g"}, {"measurement": "Percentage of Injected 111In Dose Per Gram: Heart", "setting": "[2]; 1 Hour Post Injection, n = 4", "value": "2.3 ± 0.4", "unit": "% ID/g"}, {"measurement": "Percentage of Injected 111In Dose Per Gram: Kidney", "setting": "[2]; 1 Hour Post Injection, n = 4", "value": "90 ± 9", "unit": "% ID/g"}, {"measurement": "Percentage of Injected 111In Dose Per Gram: Liver & Gall Bladder", "setting": "[2]; 1 Hour Post Injection, n = 4", "value": "4.0 ± 1.5", "unit": "% ID/g"}, {"measurement": "Percentage of Injected 111In Dose Per Gram: Lungs", "setting": "[2]; 1 Hour Post Injection, n = 4", "value": "1.3 ± 0.1", "unit": "% ID/g"}, {"measurement": "Percentage of Injected 111In Dose Per Gram: Muscle", "setting": "[2]; 1 Hour Post Injection, n = 4", "value": "3.5 ± 0.8", "unit": "% ID/g"}, {"measurement": "Percentage of Injected 111In Dose Per Gram: Spleen", "setting": "[2]; 1 Hour Post Injection, n = 4", "value": "0.36 ± 0.03", "unit": "% ID/g"}, {"measurement": "Percentage of Injected 111In Dose Per Gram: Stomach, Intestines & Contents", "setting": "[2]; 1 Hour Post Injection, n = 4", "value": "1.0 ± 0.2", "unit": "% ID/g"}, {"measurement": "Percentage of Injected 111In Dose Per Gram: Tumor", "setting": "[2]; 1 Hour Post Injection, n = 4", "value": "5.3 ± 0.4", "unit": "% ID/g"}, {"measurement": "Tumor/blood ratio", "setting": "[2]; 1 Hour Post Injection, n = 4", "value": "38 ± 7"}, {"measurement": "Tumor/kidney ratio", "setting": "[2]; 1 Hour Post Injection, n = 4", "value": "0.060 ± 0.011"}, {"measurement": "Tumor/liver ratio", "setting": "[2]; 1 Hour Post Injection, n = 4", "value": "1.5 ± 0.5"}, {"measurement": "Tumor/muscle ratio", "setting": "[2]; 1 Hour Post Injection, n = 4", "value": "1.6 ± 0.3"}, {"measurement": "Tumor/kidney ratio", "setting": "[2]; 4 Hours Post Injection BLOCKED, Folic Acid Dose 495 ± 79 μg/kg", "value": "0.050 ± 0.023"}, {"measurement": "Percentage of Injected 111In Dose Per Gram: Kidney", "setting": "[2]; 4 Hours Post Injection BLOCKED, Folic Acid Dose 495 ± 79 μg/kg, n = 3, anomalous animal excluded", "value": "2.3 ± 1.0", "unit": "% ID/g"}, {"measurement": "Percentage of Injected 111In Dose Per Gram: Blood", "setting": "[2]; [3]", "value": "0.029 ± 0.011", "unit": "% ID/g"}, {"measurement": "Percentage of Injected 111In Dose Per Gram: Heart", "setting": "[2]; [3]", "value": "0.022 ± 0.010", "unit": "% ID/g"}, {"measurement": "Percentage of Injected 111In Dose Per Gram: Liver & Gall Bladder", "setting": "[2]; [3]", "value": "0.12 ± 0.03", "unit": "% ID/g"}, {"measurement": "Percentage of Injected 111In Dose Per Gram: Lungs", "setting": "[2]; [3]", "value": "0.065 ± 0.021", "unit": "% ID/g"}, {"measurement": "Percentage of Injected 111In Dose Per Gram: Muscle", "setting": "[2]; [3]", "value": "0.023 ± 0.013", "unit": "% ID/g"}, {"measurement": "Percentage of Injected 111In Dose Per Gram: Spleen", "setting": "[2]; [3]", "value": "0.060 ± 0.021", "unit": "% ID/g"}, {"measurement": "Percentage of Injected 111In Dose Per Gram: Stomach, Intestines & Contents", "setting": "[2]; [3]", "value": "0.49 ± 0.20", "unit": "% ID/g"}, {"measurement": "Percentage of Injected 111In Dose Per Gram: Tumor", "setting": "[2]; [3]", "value": "0.16 ± 0.07", "unit": "% ID/g"}, {"measurement": "Tumor/blood ratio", "setting": "[2]; [3]", "value": "5.5 ± 0.8"}, {"measurement": "Tumor/liver ratio", "setting": "[2]; [3]", "value": "1.4 ± 0.4"}, {"measurement": "Tumor/muscle ratio", "setting": "[2]; [3]", "value": "8.4 ± 3.8"}, {"measurement": "Percentage of Injected 111In Dose Per Gram: Blood", "setting": "[2]; 4 Hours Post Injection, n = 4", "value": "0.064 ± 0.007", "unit": "% ID/g"}, {"measurement": "Percentage of Injected 111In Dose Per Gram: Heart", "setting": "[2]; 4 Hours Post Injection, n = 4", "value": "2.0 ± 0.3", "unit": "% ID/g"}, {"measurement": "Percentage of Injected 111In Dose Per Gram: Kidney", "setting": "[2]; 4 Hours Post Injection, n = 4", "value": "85 ± 12", "unit": "% ID/g"}, {"measurement": "Percentage of Injected 111In Dose Per Gram: Liver & Gall Bladder", "setting": "[2]; 4 Hours Post Injection, n = 4", "value": "2.2 ± 0.4", "unit": "% ID/g"}, {"measurement": "Percentage of Injected 111In Dose Per Gram: Lungs", "setting": "[2]; 4 Hours Post Injection, n = 4", "value": "1.1 ± 0.3", "unit": "% ID/g"}, {"measurement": "Percentage of Injected 111In Dose Per Gram: Muscle", "setting": "[2]; 4 Hours Post Injection, n = 4", "value": "2.9 ± 0.7", "unit": "% ID/g"}, {"measurement": "Percentage of Injected 111In Dose Per Gram: Spleen", "setting": "[2]; 4 Hours Post Injection, n = 4", "value": "0.35 ± 0.11", "unit": "% ID/g"}, {"measurement": "Percentage of Injected 111In Dose Per Gram: Stomach, Intestines & Contents", "setting": "[2]; 4 Hours Post Injection, n = 4", "value": "1.0 ± 0.2", "unit": "% ID/g"}, {"measurement": "Percentage of Injected 111In Dose Per Gram: Tumor", "setting": "[2]; 4 Hours Post Injection, n = 4", "value": "6.8 ± 1.2", "unit": "% ID/g"}, {"measurement": "Tumor/blood ratio", "setting": "[2]; 4 Hours Post Injection, n = 4", "value": "106 ± 15"}, {"measurement": "Tumor/kidney ratio", "setting": "[2]; 4 Hours Post Injection, n = 4", "value": "0.080 ± 0.012"}, {"measurement": "Tumor/liver ratio", "setting": "[2]; 4 Hours Post Injection, n = 4", "value": "3.3 ± 1.1"}, {"measurement": "Tumor/muscle ratio", "setting": "[2]; 4 Hours Post Injection, n = 4", "value": "2.5 ± 0.9"}]}
{"smiles": "Nc1nc2ncc(CNc3ccc(C(=O)NC(C(=O)O)c4ccccn4)cc3)nc2c(=O)[nH]1", "note": "(stereo not drawn) [Pte-AP, N-pteroyl-2-amino-2-carboxymethylpyridine]", "values": [{"measurement": "relative binding activity compared to folic acid", "setting": "[1]", "value": 0.48}, {"measurement": "EC50", "setting": "[1]", "value": 193, "unit": "nM"}]}
{"smiles": "NNC(=O)c1ccc(NCc2cnc3nc(N)nc(O)c3n2)cc1", "note": "[Pteroyl hydrazide, pteroyl hydrazide]", "values": [{"measurement": "relative binding activity compared to folic acid", "setting": "[1]", "value": 0.74}, {"measurement": "EC50", "setting": "[1]", "value": 94, "unit": "nM"}]}
